Reference: US20090176950A1, “METAL HYDRIDE COMPLEX, METHOD OF HYD[…]-OPENING POLY[…] OF CYCLOOLEFIN, AND PROCESS FOR PRODUCING PRODUCT OF HYD[…] RING-OPENING POLY[…] OF CYCLOOLEFIN” (JSR CORPORATION, priority 2005, published 2009)

Assays:
[1] = solubility of the metal hydride complex to toluene; format: physicochemical
[2] = hydrogenation of ring-opening polymer with the complex as hydrogenation catalyst (Example 4 procedure); settings: 0.06 parts complex per 1000 parts polymer solution, hydrogen 100 kg/cm^2, 165° C., 3 hours, 1H-NMR
Procedure: Into a reaction vessel substituted with nitrogen were charged 250 parts of 8-methyl-8-methoxycarbonyltetracyclo[4.4.0.1^2,5.1^7,10]-3-dodecene, 18 parts of 1-hexene (molecular weight adjusting agent) and 750 parts of toluene and the resulting solution was heated to 80° C. Thereafter, to the solution in the reaction vessel were added 0.62 parts of a toluene solution of triethylaluminum (1.5 mol/L) as a polymerization catalyst and 3.7 parts of a toluene solution (concentration: 0.05 mol/L) of tungsten hexachloride modified with t-butanol and methanol (t-butanol:methanol:tungsten=0.35 mol:0.3 mol:1 mol). The ring-opening copolymerization reaction was carried out by heating and stirring this system at 80° C. for 3 hours to obtain a ring-opening metathesis polymer solution of 8-methyl-8-methoxycarbonyltetracyclo[4.4.0.1^2,5.1^7,10]-3-dodecene. The polymerization conversion rate in this polymerization reaction was 97%.
Into an autoclave was charged 1000 parts of the ring-opening polymer solution obtained above and to this solution was added as a hydrogenation catalyst a toluene solution of 0.5% by weight of the ruthenium hydride complex obtained in Example 1 in an amount (12 parts) so that the amount of added complex was 0.06 parts. The hydrogenation reaction was carried out by heating and stirring for 3 hours under the conditions of a hydrogen gas pressure of 100 kg/cm^2 and a reaction temperature of 165° C. The resulting reaction solution (hydrogenated polymer solution) was cooled and then the hydrogen gas was released. This reaction solution was poured into a large amount of methanol to separate and collect a coagulated substances which was dried to obtain a hydrogenated polymer.

[3] = hydrogenation of ring-opening copolymer with the complex as catalyst (Example 8); settings: 0.06 parts complex, hydrogen 100 kg/cm^2, 165° C., 3 hours
Text: A ring-opening copolymer solution was obtained by carrying out the same polymerization operations as those in Example 4 except that 190 parts of 8-methyl-8-methoxycarbonyltetracyclo[4.4.0.1^2,5.1^7,10]-3-dodecene and 60 parts of spiro[fluorene-9,8′-tricyclo[4.3.0.1^2,5]dec-3-ene were used in place of 250 parts of 8-methyl-8-methoxycarbonyltetracyclo[4.4.0.1^2,5.1^7,10]-3-dodecene. The polymerization conversion rate in this polymerization reaction was 96%.
(§1) Into an autoclave was charged 1000 parts of the ring-opening copolymer solution thus obtained and to the ring-opening polymer solution was added a toluene solution of 1.0% by weight of the ruthenium hydride complex obtained in Example 2 in an amount (6 parts) so that the amount of added complex was 0.06 parts. The hydrogenation reaction was carried out by heating and stirring for 3 hours under the conditions of a hydrogen gas pressure of 100 kg/cm^2 and a reaction temperature of 165° C. The resulting reaction solution (hydrogenated polymer solution) was cooled and then the hydrogen gas was released. […] This polymer was analyzed by ^1H-NMR and the hydrogenation rate was determined by the ratio of the integral value of the saturated hydrocarbons at 0.6 to 2.5 ppm to the integral value of the unsaturated hydrocarbons at 5.0 to 5.6 ppm.

[4] = autoclave hydrogenation of DNM/DCP polymer (Example 9 procedure)
Procedure: (§2) ^1H-NMR was measured by using AVANCE500 manufactured by BRUKER as a nuclear magnetic resonance spectrometer (NMR) with chloroform-d as a measuring solvent. The composition of a monomer was calculated from the integral value of the vinylene group at 5.1 to 5.8 ppm, the methoxy group at 3.7 ppm and the aliphatic proton at 0.6 to 2.8 ppm, and then the hydrogenation rate was calculated.
Into a reaction vessel substituted with nitrogen were charged 75 parts by weight of 8-methoxycarbonyl-8-methyltetracyclo[4.4.0.1^2,5.1^7,10]-3-dodecene (DNM) and 25 parts by weight of dicyclopentadiene (DCP) as monomers, 6 parts by weight of 1-butene as a molecular weight adjusting agent and 170 parts by weight of toluene, and the resultant mixture was heated to 100° C. To this mixture were added 0.005 parts by weight of triethylaluminum, 0.005 parts by weight of methanol-modified WCl6 (anhydrous methanol:PhPOCl2:WCl6=103:630:427 (weight ratio)), and the reaction was carried out at 100° C. for one hour to obtain a polymer. The conversion was 100%.
Next, into a pressure-proof autoclave with a design temperature of 185° C. and a capacity of 1.25 m^3 were charged a solution of the polymer obtained above equivalent to 350 kg of the solid component and as a hydrogenation catalyst 0.0335 parts by weight of RuH(CO)[P(C6H5)]2(OCO-p-Ph-n-C5H13) of which saturation solubility to toluene at 25° C. is 5% by weight based on 100 parts by weight equivalent to the polymer solid component conversion, and the autoclave was heated to 100° C. Then, hydrogen gas was introduced to the autoclave to increase the pressure to 10 MPa. The maximum attained temperature during the hydrogenation reaction was 179° C. The theoretical value of generated heat was calculated from DNM=129.3 kcal/kg and DCP=452.3 kcal/kg. Thereafter, the reaction was carried out at 165° C. for 3 hours while maintaining the pressure at 10 MPa to obtain a hydrogenated product. […]

[5] = autoclave hydrogenation of DNM/DCP/NB polymer (Example 10 procedure); settings: gelation inhibitor
Procedure: as §2
A hydrogenated product was obtained in the same way as Example 1 except that in Example 9, there were charged 65 parts by weight of 8-methoxycarbonyl-8-methyltetracyclo[4.4.0.1^2,5.1^7,10]-3-dodecene (DNM), 25 parts by weight of dicyclopentadiene (DCP) and 10 parts by weight of norbornene (NB) as monomers and 190 parts by weight of toluene to synthesize a polymer, and the charged amount equivalent to the solid component of the polymer was changed to 330 kg in the hydrogenation reaction. […] The maximum attained temperature during the hydrogenation reaction was 179° C. The theoretical value of generated heat was calculated from DNM=129.3 kcal/kg, DCP=452.3 kcal/kg and NB=319.3 kcal/kg.

[6] = hydrogenation of ring-opening copolymer with the complex as catalyst (Example 7); settings: 0.06 parts complex, hydrogen 100 kg/cm^2, 165° C., 3 hours
Text: A ring-opening polymer solution was obtained by carrying out the same polymerization operations as those in Example 4 except that 187.5 parts of 8-methyl-8-methoxycarbonyltetracyclo[4.4.0.1^2,5.1^7,10]-3-dodecene and 62.5 parts of tricyclo[4.3.0.1^2,5]deca-3,8-diene were used in place of 250 parts of 8-methyl-8-methoxycarbonyltetracyclo[4.4.0.1^2,5.1^7,10]-3-dodecene. The polymerization conversion rate of this polymerization reaction was 98%.
as §1, with “ring-opening copolymer” for “ring-opening polymer”, “conditions including” for “conditions of”

[7] = hydrogen introduced at 100° C., 10 MPa, 165° C. for 3 hours

[C-]#[O+].[Cl][RuH].c1ccc(P(c2ccccc2)c2ccccc2)cc1.c1ccc(P(c2ccccc2)c2ccccc2)cc1.c1ccc(P(c2ccccc2)c2ccccc2)cc1 [RuHCl(CO)(PPh3)3, reference compound]
solubility to toluene at 20° C. [1]: 0.03 % by weight
saturation solubility to toluene at 25° C. [1]: 0.05 % by weight
saturation solubility to toluene ([1]; temperature not given): 0.05 % by weight
hydrogenation rate of the hydrogenated polymer [2]: 99.75%
hydrogenation rate of the main chain of the copolymer [3]: 99.30%
olefinic unsaturated bonds in the main chain hydrogenated (hydrogenation rate) [4, 7]: ≥ 99.9%
olefinic unsaturated bonds in the main chain hydrogenated (hydrogenation rate) ([4]; hydrogen introduction temperature 150° C., 600 parts toluene, gelation inhibitor): ≥ 99.9%
olefinic unsaturated bonds in the main chain hydrogenated (hydrogenation rate) ([5]; hydrogen introduction temperature 100° C.): ≥ 99.9%
olefinic unsaturated bonds in the main chain hydrogenated (hydrogenation rate) ([5]; hydrogen introduction temperature 150° C., 700 parts toluene): ≥ 99.9%

RuH(CO)[P(C6H5)]2(OCO-p-Ph-n-C5H13)
saturation solubility to toluene at 25° C. [1]: 5 % by weight
olefinic unsaturated bonds in the main chain hydrogenated (hydrogenation rate) [4, 7]: ≥ 99.9%

RuH(OCOPh)(CO)(PPh3)2 [Example 1]
solubility to toluene at 20° C. [1]: 0.5 % by weight
hydrogenation rate of the hydrogenated polymer [2]: 99.99%

RuH(OCOPh-C5H11)(CO)(PPh3)2 [Example 2]
solubility to toluene at 20° C. [1]: 1.0 % by weight
hydrogenation rate of the hydrogenated polymer [2]: 99.95%
hydrogenation rate of the main chain of the copolymer [6]: 99.97%
hydrogenation rate of the unsaturated double bonds derived from the side chain of tricyclo[4.3.0.1^2,5]deca-3,8-diene [6]: ≥ 99.99%
hydrogenation rate of the main chain of the copolymer [3]: 99.93%

RuH(OCOPh-C8H17)(CO)(PPh3)2 [Example 3]
solubility to toluene at 20° C. [1]: 5.0 % by weight
hydrogenation rate of the hydrogenated polymer [2]: 99.90%
